As a reminder, the Kd is the equilibrium constant for the complex coming apart.

The species named for test [1] is Rattus norvegicus. Description: Bmax value(fmol/mg )was evaluated in rat brain using [125I]iodo-MLA.
The species named for test [2] is Rattus norvegicus. Description: Affinity constant Kd(nM) in rat brain cerebral cortex homogenates.
Test [3] is filed under the species Rattus norvegicus. As to the kind of experiment: Bmax value(fmol/mg protein) was evaluated in rat brain using [3H]MLA.

In the case of `CCN1C[C@]2(COC(=O)c3cc([125I])ccc3N3C(=O)C[C@H](C)C3=O)CC[C@H](OC)[C@@]34[C@@H]5C[C@H]6[C@H](OC)[C@@H]5[C@](O)(C[C@@H]6OC)[C@](O)([C@@H](OC)[C@H]23)[C@@H]14`, the Bmax in the test listed under Rattus norvegicus [1] amounted to 68 fmol/mg.

Regarding `[3H]c1cccc(N2C(=O)C[C@H](C)C2=O)c1C(=O)OC[C@@]12CC[C@H](OC)[C@@]34[C@@H]5C[C@H]6[C@H](OC)[C@@H]5[C@](O)(C[C@@H]6OC)[C@](O)([C@@H](OC)[C@H]13)[C@H]4N(CC)C2` [METHYLLYCACONITINE[3H] MLA], the Kd in the test filed under Rattus norvegicus [2] amounted to 1.9 nM. In the test listed under Rattus norvegicus [3], this compound gave a Bmax of 65 fmol/mg.

For the origin of these results see ChEMBL document CHEMBL1133657, “Synthesis and pharmacological characterization of [(125)I]iodomethyllycaconitine ([(125)I]iodo-MLA). A new ligand for the alpha(7) nicotinic acetylcholine receptor” (J Med Chem, 2000).
